{
  "source": "paper PMC10041525",
  "about": "“New Dual Inhibitors of Bacterial Topoisomerases with Broad-Spectrum Antibacterial Activity and In Vivo Efficacy against Vancomycin-Intermediate Staphylococcus aureus” (Journal of Medicinal Chemistry, 2023)",
  "system": "100 A. baumannii strains (50 MDR, 50 non-MDR)",
  "test": "MIC broth microdilution at IHMA Europe, panel of 100 strains",
  "assay_type": "cell-based",
  "settings": "Acinetobacter baumannii, read-out: MIC",
  "note": "Where two headings read alike, the source gives them in different places.",
  "data": [
    {"molecule": "C[C@@H](O)[C@H]1C(=O)N2C(C(=O)O)=C(S[C@@H]3CN[C@H](C(=O)N(C)C)C3)[C@H](C)[C@H]12", "note": "[Meropenem, meropenem]", "values": [
      {"measurement": "MIC", "setting": "A. baumannii IHMA 1769393, Lithuania 2018, Non-MDR", "value": 0.25, "unit": "mg/L"},
      {"measurement": "MIC", "setting": "A. baumannii IHMA 1769782, Israel 2018, MDR", "value": "> 16", "unit": "mg/L"},
      {"measurement": "MIC", "setting": "A. baumannii IHMA 1769910, Israel 2018, Non-MDR", "value": 0.25, "unit": "mg/L"},
      {"measurement": "MIC", "setting": "A. baumannii IHMA 1790317, Czech Republic 2018, Non-MDR", "value": 0.12, "unit": "mg/L"},
      {"measurement": "MIC", "setting": "A. baumannii IHMA 1790916, Romania 2018, Non-MDR", "value": "≤ 0.06", "unit": "mg/L"},
      {"measurement": "MIC", "setting": "A. baumannii IHMA 1791877, Israel 2018, MDR", "value": "> 16", "unit": "mg/L"},
      {"measurement": "MIC", "setting": "A. baumannii IHMA 1792961, Jordan 2018, MDR", "value": "> 16", "unit": "mg/L"},
      {"measurement": "MIC", "setting": "A. baumannii IHMA 1795669, Tunisia 2018, Non-MDR", "value": 0.25, "unit": "mg/L"},
      {"measurement": "MIC", "setting": "A. baumannii IHMA 1814276, Lebanon 2018, MDR", "value": "> 16", "unit": "mg/L"},
      {"measurement": "MIC", "setting": "A. baumannii IHMA 1815198, Kuwait 2018, MDR", "value": "> 16", "unit": "mg/L"},
      {"measurement": "MIC", "setting": "A. baumannii IHMA 1815856, Israel 2018, MDR", "value": "> 16", "unit": "mg/L"},
      {"measurement": "MIC", "setting": "A. baumannii IHMA 1821468, South Africa 2018, Non-MDR", "value": 0.25, "unit": "mg/L"},
      {"measurement": "MIC", "setting": "A. baumannii IHMA 1829500, Georgia 2018, Non-MDR", "value": 0.12, "unit": "mg/L"},
      {"measurement": "MIC", "setting": "A. baumannii IHMA 1830924, United Kingdom 2018, Non-MDR", "value": 0.5, "unit": "mg/L"},
      {"measurement": "MIC", "setting": "A. baumannii IHMA 1849819, Kuwait 2018, MDR", "value": "> 16", "unit": "mg/L"},
      {"measurement": "MIC", "setting": "A. baumannii IHMA 1849829, Kuwait 2018, Non-MDR", "value": 0.12, "unit": "mg/L"},
      {"measurement": "MIC", "setting": "A. baumannii IHMA 1857118, Slovenia 2018, Non-MDR", "value": 0.25, "unit": "mg/L"},
      {"measurement": "MIC", "setting": "A. baumannii IHMA 1863631, France 2018, Non-MDR", "value": 0.12, "unit": "mg/L"},
      {"measurement": "MIC", "setting": "A. baumannii IHMA 1870054, United States 2018, Non-MDR", "value": 0.25, "unit": "mg/L"},
      {"measurement": "MIC", "setting": "A. baumannii IHMA 1884428, Italy 2018, Non-MDR", "value": 0.12, "unit": "mg/L"},
      {"measurement": "MIC", "setting": "A. baumannii IHMA 1884990, Germany 2018, Non-MDR", "value": 0.25, "unit": "mg/L"},
      {"measurement": "MIC", "setting": "A. baumannii IHMA 1900538, Turkey 2018, Non-MDR", "value": 0.12, "unit": "mg/L"},
      {"measurement": "MIC", "setting": "A. baumannii IHMA 1913773, Kenya 2018, Non-MDR", "value": 0.25, "unit": "mg/L"},
      {"measurement": "MIC", "setting": "A. baumannii IHMA 1926285, Qatar 2018, Non-MDR", "value": "≤ 0.06", "unit": "mg/L"},
      {"measurement": "MIC", "setting": "A. baumannii IHMA 1926288, Qatar 2018, MDR", "value": "> 16", "unit": "mg/L"},
      {"measurement": "MIC", "setting": "A. baumannii IHMA 1957343, Portugal 2019, Non-MDR", "value": 0.25, "unit": "mg/L"},
      {"measurement": "MIC", "setting": "A. baumannii IHMA 1963732, Turkey 2019, MDR", "value": "> 16", "unit": "mg/L"},
      {"measurement": "MIC", "setting": "A. baumannii IHMA 1967860, Spain 2019, Non-MDR", "value": 0.25, "unit": "mg/L"},
      {"measurement": "MIC", "setting": "A. baumannii IHMA 1971673, Latvia 2019, MDR", "value": "> 16", "unit": "mg/L"},
      {"measurement": "MIC", "setting": "A. baumannii IHMA 1975075, Israel 2019, Non-MDR", "value": 0.25, "unit": "mg/L"},
      {"measurement": "MIC", "setting": "A. baumannii IHMA 1977077, Kuwait 2019, Non-MDR", "value": 0.5, "unit": "mg/L"},
      {"measurement": "MIC", "setting": "A. baumannii IHMA 1983151, Greece 2019, MDR", "value": "> 16", "unit": "mg/L"},
      {"measurement": "MIC", "setting": "A. baumannii IHMA 1984665, Lithuania 2019, MDR", "value": "> 16", "unit": "mg/L"},
      {"measurement": "MIC", "setting": "A. baumannii IHMA 1986678, Turkey 2019, Non-MDR", "value": 0.25, "unit": "mg/L"},
      {"measurement": "MIC", "setting": "A. baumannii IHMA 1986738, Turkey 2019, MDR", "value": "> 16", "unit": "mg/L"},
      {"measurement": "MIC", "setting": "A. baumannii IHMA 1987162, Croatia 2019, MDR", "value": "> 16", "unit": "mg/L"},
      {"measurement": "MIC", "setting": "A. baumannii IHMA 1993615, Turkey 2019, MDR", "value": "> 16", "unit": "mg/L"},
      {"measurement": "MIC", "setting": "A. baumannii IHMA 1994284, Italy 2019, MDR", "value": "> 16", "unit": "mg/L"},
      {"measurement": "MIC", "setting": "A. baumannii IHMA 1995161, Czech Republic 2019, Non-MDR", "value": 0.25, "unit": "mg/L"},
      {"measurement": "MIC", "setting": "A. baumannii IHMA 1997936, Morocco 2019, Non-MDR", "value": 0.12, "unit": "mg/L"},
      {"measurement": "MIC", "setting": "A. baumannii IHMA 1999178, Belgium 2019, Non-MDR", "value": 0.25, "unit": "mg/L"},
      {"measurement": "MIC", "setting": "A. baumannii IHMA 2003279, Turkey 2019, MDR", "value": "> 16", "unit": "mg/L"},
      {"measurement": "MIC", "setting": "A. baumannii IHMA 2014367, Jordan 2019, Non-MDR", "value": 0.25, "unit": "mg/L"},
      {"measurement": "MIC", "setting": "A. baumannii IHMA 2014931, South Africa 2019, Non-MDR", "value": 1, "unit": "mg/L"},
      {"measurement": "MIC", "setting": "A. baumannii IHMA 2019315, Romania 2019, Non-MDR", "value": 0.12, "unit": "mg/L"},
      {"measurement": "MIC", "setting": "A. baumannii IHMA 2020360, Croatia 2019, MDR", "value": "> 16", "unit": "mg/L"},
      {"measurement": "MIC", "setting": "A. baumannii IHMA 2031511, Greece 2019, Non-MDR", "value": 0.12, "unit": "mg/L"},
      {"measurement": "MIC", "setting": "A. baumannii IHMA 2031524, Greece 2019, MDR", "value": "> 16", "unit": "mg/L"},
      {"measurement": "MIC", "setting": "A. baumannii IHMA 2034657, Tunisia 2019, Non-MDR", "value": 0.25, "unit": "mg/L"},
      {"measurement": "MIC", "setting": "A. baumannii IHMA 2035089, Serbia 2019, MDR", "value": "> 16", "unit": "mg/L"},
      {"measurement": "MIC", "setting": "A. baumannii IHMA 2035134, Serbia 2019, Non-MDR", "value": 0.25, "unit": "mg/L"},
      {"measurement": "MIC", "setting": "A. baumannii IHMA 2038976, Hungary 2019, MDR", "value": "> 16", "unit": "mg/L"},
      {"measurement": "MIC", "setting": "A. baumannii IHMA 2051503, Serbia 2019, MDR", "value": "> 16", "unit": "mg/L"},
      {"measurement": "MIC", "setting": "A. baumannii IHMA 2058329, Slovenia 2019, Non-MDR", "value": 0.12, "unit": "mg/L"},
      {"measurement": "MIC", "setting": "A. baumannii IHMA 2065587, France 2019, Non-MDR", "value": 0.12, "unit": "mg/L"},
      {"measurement": "MIC", "setting": "A. baumannii IHMA 2099294, United Kingdom 2019, Non-MDR", "value": 0.25, "unit": "mg/L"},
      {"measurement": "MIC", "setting": "A. baumannii IHMA 2129256, Qatar 2019, Non-MDR", "value": 0.12, "unit": "mg/L"},
      {"measurement": "MIC", "setting": "A. baumannii IHMA 2154584, Israel 2020, MDR", "value": 16, "unit": "mg/L"},
      {"measurement": "MIC", "setting": "A. baumannii IHMA 2155340, Kenya 2020, MDR", "value": 16, "unit": "mg/L"},
      {"measurement": "MIC", "setting": "A. baumannii IHMA 2156634, Turkey 2020, MDR", "value": "> 16", "unit": "mg/L"},
      {"measurement": "MIC", "setting": "A. baumannii IHMA 2156709, Turkey 2020, MDR", "value": "> 16", "unit": "mg/L"}
    ]}
  ]
}
